Data on 20 compounds can be found in patent US20230286958A1, “PLASMA KALLIKREIN INHIBITORS” (Merck Sharp & Dohme LLC, priority 2020, published 2023).

SMILES strings stand for the structures.

Experiment [1] deals with human Factor XIa (Homo sapiens (Human), UniProt P03951). The experiment is described as follows: Factor XIa Assay (fluorogenic substrate GPR-AFC). The settings on record: Factor XIa (FXIa). Type of experiment: biochemical.
Experiment [2] has as its target Human plasma kallikrein (Homo sapiens (Human), UniProt P03952). The experiment is described as follows: Kallikrein Assay (fluorogenic substrate Acetyl-K-P-R-AFC). The settings on record: Plasma Kallikrein (PKal). It counts as biochemical. In a few lines:
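Ki is derived from IC50 with the Cheng-Prusoff equation, and IC50 from the inflection point of a four-parameter logistic curve. The rate of AFC release is read with 0.5 nM purified enzyme and […] substrate at room temperature or 37 °C.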

Sequence of Human plasma kallikrein (P03952 391-638): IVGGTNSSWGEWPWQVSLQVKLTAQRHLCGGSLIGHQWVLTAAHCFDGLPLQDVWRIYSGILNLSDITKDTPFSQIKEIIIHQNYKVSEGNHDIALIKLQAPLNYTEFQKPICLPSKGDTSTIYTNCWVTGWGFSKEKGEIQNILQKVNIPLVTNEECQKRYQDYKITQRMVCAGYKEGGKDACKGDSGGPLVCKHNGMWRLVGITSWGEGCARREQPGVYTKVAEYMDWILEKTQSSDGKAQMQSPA
Sequence of Human plasma kallikrein (P03952 20-390 partner): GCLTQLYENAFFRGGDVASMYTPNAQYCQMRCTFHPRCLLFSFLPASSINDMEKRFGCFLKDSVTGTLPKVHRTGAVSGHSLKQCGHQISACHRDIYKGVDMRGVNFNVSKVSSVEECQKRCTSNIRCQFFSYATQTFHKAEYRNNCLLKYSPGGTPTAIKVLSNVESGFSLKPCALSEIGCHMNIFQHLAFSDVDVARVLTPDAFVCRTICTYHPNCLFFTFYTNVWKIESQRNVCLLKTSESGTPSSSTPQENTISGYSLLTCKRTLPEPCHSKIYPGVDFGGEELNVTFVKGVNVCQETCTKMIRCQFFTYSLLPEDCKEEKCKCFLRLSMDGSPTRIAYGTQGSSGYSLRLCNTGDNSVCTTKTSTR
Sequence of human Factor XIa (P03951 388-625 limits assumed): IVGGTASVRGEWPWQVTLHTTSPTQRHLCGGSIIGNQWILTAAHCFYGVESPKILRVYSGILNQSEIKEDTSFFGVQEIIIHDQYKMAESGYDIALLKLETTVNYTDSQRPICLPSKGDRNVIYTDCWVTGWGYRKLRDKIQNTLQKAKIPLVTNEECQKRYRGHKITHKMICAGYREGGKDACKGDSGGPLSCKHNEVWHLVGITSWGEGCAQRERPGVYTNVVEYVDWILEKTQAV
Sequence of human Factor XIa (P03951 19-387 partner limits assumed): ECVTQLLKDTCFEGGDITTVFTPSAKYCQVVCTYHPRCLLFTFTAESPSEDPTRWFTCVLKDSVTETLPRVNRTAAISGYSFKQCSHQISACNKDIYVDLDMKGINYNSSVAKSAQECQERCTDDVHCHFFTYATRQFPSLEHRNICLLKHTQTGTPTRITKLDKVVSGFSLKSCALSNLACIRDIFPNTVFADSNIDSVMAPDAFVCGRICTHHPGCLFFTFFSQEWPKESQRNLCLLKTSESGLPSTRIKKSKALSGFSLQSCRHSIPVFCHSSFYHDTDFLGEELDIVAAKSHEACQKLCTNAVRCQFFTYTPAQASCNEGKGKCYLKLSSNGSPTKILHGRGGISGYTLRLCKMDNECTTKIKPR

For the compound `Cc1cc(C(C)n2cc(NC(=O)c3nc(-c4c(C(F)F)ccc(Cl)c4F)cnc3C(C)O)cn2)nnc1N1C[C@H]2C[C@H]2C1=O` (single isomer, unassigned) [Example 232, 6-(3-Chloro-6-(difluoromethyl)-2-fluorophenyl)-3-((S or R)-1-hydroxyethyl)-N-(1-((R or S)-1-(5-methyl-6-((1R,5S)-2-oxo-3-azabicyclo[3.1.0]hexan-3-yl)pyridazin-3-yl)ethyl)-1H-pyrazol-4-yl)pyrazine-2-carboxamide], the figures for the IC50 in experiment [1] and in experiment [2] were 194 nM and 1.8 nM, respectively.
For the compound `CC(c1cnc(N2C[C@H]3C[C@H]3C2=O)nc1CO)n1cc(NC(=O)c2cncc(-c3c(C(F)F)ccc(Cl)c3F)n2)cn1` (stereo in doubt) [Example 169, 6-(3-Chloro-6-(difluoromethyl)-2-fluorophenyl)-N-(1-(1-(4-(hydroxymethyl)-2-(2-oxo-3-azabicyclo[3.1.0]hexan-3-yl)pyrimidin-5-yl)ethyl)-1H-pyrazol-4-yl)pyrazine-2-carboxamide], the IC50 – broadly, the concentration that gives 50% inhibition – in experiment [1] was found to be 2200 nM; in experiment [2] it was 15.2 nM.
Take `COc1c(N2C[C@H]3C[C@H]3C2=O)ncc(C(C)n2cc(NC(=O)c3cncc(-c4c(C(F)F)ccc(Cl)c4F)n3)cn2)c1C` (single isomer, unassigned) [Example 154, 6-(3-Chloro-6-(difluoromethyl)-2-fluorophenyl)-N-(1-((R or S)-1-(5-methoxy-4-methyl-6-((1R,5S)-2-oxo-3-azabicyclo[3.1.0]hexan-3-yl)pyridin-3-yl)ethyl)-1H-pyrazol-4-yl)pyrazine-2-carboxamide]: the half-maximal inhibitory concentration (IC50) in experiment [1] turned out to be 661 nM; in experiment [2], 0.3 nM.
As to `O=C(Nc1cnn(Cc2ccc(N3C[C@H]4C[C@H]4C3=O)cc2)c1)c1cncc(-c2c(C(F)F)ccc(Cl)c2F)n1` [Example 145, 6-(3-Chloro-6-(difluoromethyl)-2-fluorophenyl)-N-(1-(4-((1R,5S)-2-oxo-3-azabicyclo[3.1.0]hexan-3-yl)benzyl)-1H-pyrazol-4-yl)pyrazine-2-carboxamide], the values for the 50% inhibitory concentration (IC50) in experiment [1] and in experiment [2] were above 10000 nM and 2.4 nM, respectively.
As to `Cc1cc([C@H](C)n2cc(NC(=O)c3nc(-c4c(OC(F)F)ccc(Cl)c4F)cnc3CO)cn2)cnc1N1C[C@H]2C[C@H]2C1=O` [Example 226], the IC50 was determined as 41 nM in experiment [1] and 0.4 nM in experiment [2].
As for `Cc1cc(Cn2ncc(NC(=O)c3nc(-c4c(C(F)F)ccc(Cl)c4F)cnc3C)n2)cnc1N1C[C@H]2C[C@H]2C1=O` [Example 187, 6-(3-Chloro-6-(difluoromethyl)-2-fluorophenyl)-3-methyl-N-(2-((5-methyl-6-((1R,5S)-2-oxo-3-azabicyclo[3.1.0]hexan-3-yl)pyridin-3-yl)methyl)-2H-1,2,3-triazol-4-yl)pyrazine-2-carboxamide], the IC50 is 5670 nM in experiment [1] and 4.3 nM in experiment [2].
For the compound `Cc1cc([C@@H](C)n2cc(NC(=O)c3cncc(-c4c(C(F)F)ccc(Cl)c4F)n3)cn2)nnc1N1C[C@H]2C[C@H]2C1=O` [Example 38, 6-(3-Chloro-6-(difluoromethyl)-2-fluorophenyl)-N-(1-((R)-1-(5-methyl-6-((1R,5S)-2-oxo-3-azabicyclo[3.1.0]hexan-3-yl)pyridazin-3-yl)ethyl)-1H-pyrazol-4-yl)pyrazine-2-carboxamide], the 50% inhibitory concentration (IC50) is 742 nM in experiment [1] and 6.2 nM in experiment [2].
For `COCc1ncc(-c2c(C(F)F)ccc(Cl)c2F)nc1C(=O)Nc1cnn([C@@H](C)c2cnc(N3C[C@H]4C[C@H]4C3=O)nc2)c1` [Example 175, 6-(3-Chloro-6-(difluoromethyl)-2-fluorophenyl)-3-(methoxymethy-((S)-1-(2-((1R,5S)-2-oxo-3-azabicyclo[3.1.0]hexan-3-yl)pyrimidin-5-yl)ethyl)-1H-pyrazol-4-yl)pyrazine-2-carboxamide] the same measures were 3680 nM and 3 nM.
As for `Cc1cc(C(C)n2cc(NC(=O)c3nc(-c4c(C(F)F)ccc(Cl)c4F)cnc3C(C)O)cn2)cnc1N1C[C@H]2C[C@H]2C1=O` (single isomer, unassigned) [Example 212, 6-(3-Chloro-6-(difluoromethyl)-2-fluorophenyl)-3-((S or R)-1-hydroxyethyl)-N-(1-((R or S)-1-(5-methyl-6-((1R,5S)-2-oxo-3-azabicyclo[3.1.0]hexan-3-yl)pyridin-3-yl)ethyl)-1H-pyrazol-4-yl)pyrazine-2-carboxamide], the half-maximal inhibitory concentration (IC50) in experiment [1] came to 354 nM; in experiment [2], 1 nM.
As to `Cc1ncc(-c2c(C(F)F)ccc(Cl)c2F)nc1C(=O)Nc1cnn([C@@H](C)c2cnc(N3C[C@H]4C[C@H]4C3=O)c(O)c2)c1` [Example 217, 6-(3-Chloro-6-(difluoromethyl)-2-fluorophenyl)-N-(1-((S)-1-(5-hydroxy-6-((1R,5S)-2-oxo-3-azabicyclo[3.1.0]hexan-3-yl)pyridin-3-yl)ethyl)-1H-pyrazol-4-yl)-3-methylpyrazine-2-carboxamide], the IC50 in experiment [1] is 4150 nM; in experiment [2], 14.9 nM.
The corresponding values for `Cc1nc(N2C[C@H]3C[C@H]3C2=O)ncc1[C@H](C)n1cc(NC(=O)c2cncc(-c3c(C(F)F)ccc(Cl)c3F)n2)cn1` [Example 22, 6-(3-Chloro-6-(difluoromethyl)-2-fluorophenyl)-N-(1-((S)-1-(4-methyl-2-((1R,5S)-2-oxo-3-azabicyclo[3.1.0]hexan-3-yl)pyrimidin-5-yl)ethyl)-1H-pyrazol-4-yl)pyrazine-2-carboxamide] are 2730 nM and 1.8 nM.
Turning to `O=C(Nc1cnn(Cc2cnc(N3C[C@H]4C[C@H]4C3=O)nc2)c1)c1cncc(-c2c(C(F)F)ccc(Cl)c2F)n1` [Example 25, 6-(3-Chloro-6-(difluoromethyl)-2-fluorophenyl)-N-(1-((2-((1R,5S)-2-oxo-3-azabicyclo-[3.1.0]hexan-3-yl)pyrimidin-5-yl)methyl)-1H-pyrazol-4-yl)pyrazine-2-carboxamide], the IC50 in experiment [1] is 4690 nM; in experiment [2], 27.7 nM.
For `Cc1c(C(CO)n2cc(NC(=O)c3cncc(-c4c(C(F)F)ccc(Cl)c4F)n3)cn2)cnc(N2C[C@H]3C[C@H]3C2=O)c1C` (single isomer, unassigned) [Example 167, 6-(3-Chloro-6-(difluoromethyl)-2-fluorophenyl)-N-(1-([R or S)-1-(4,5-dimethyl-6-((1R,5S)-2-oxo-3-azabicyclo[3.1.0]hexan-3-yl)pyridin-3-yl)-2-hydroxyethyl)-1H-pyrazol-4-yl)pyrazine-2-carboxamide], the figures for the IC50 in experiment [1] and in experiment [2] were 3650 nM and 10.5 nM, respectively.
As for `Cc1nc(Cn2cc(NC(=O)c3cncc(-c4c(C(F)F)ccc(Cl)c4F)n3)cn2)cnc1N1C[C@H]2C[C@H]2C1=O` [Example 47, 6-(3-Chloro-6-(difluoromethyl)-2-fluorophenyl)-N-(1-((6-methyl-5-((1R,5S)-2-oxo-3-azabicyclo[3.1.0]hexan-3-yl)pyrazin-2-yl)methyl)-1H-pyrazol-4-yl)pyrazine-2-carboxamide], the 50% inhibitory concentration (IC50) is 1150 nM in experiment [1] and 2.5 nM in experiment [2].
On to `CC(c1cnc(N2C[C@H]3C[C@H]3C2=O)c2c1OC(F)(F)O2)n1cc(NC(=O)c2cncc(-c3c(C(F)F)ccc(Cl)c3F)n2)cn1` (single isomer, unassigned) [Example 249, 6-(3-Chloro-6-(difluoromethyl)-2-fluorophenyl)-N-(1-((S or R)-1-(2,2-difluoro-4-((1R,5S)-2-oxo-3-azabicyclo[3.1.0]hexan-3-yl)-[1,3]dioxolo[4,5-c]pyridin-7-yl)ethyl)-1H-pyrazol-4-yl)pyrazine-2-carboxamide], for which the half-inhibitory concentration (IC50) was above 10000 nM in experiment [1] and 2.1 nM in experiment [2].
On to `Cc1ncc(-c2c(C(F)F)ccc(Cl)c2F)nc1C(=O)Nc1cnn(C(C)c2cnc(N3C[C@H]4C[C@H]4C3=O)c(Cl)c2)c1` (stereo partly drawn) [Example 91, N-(1-((S)-1-(5-chloro-6-((1R,5S)-2-oxo-3-azabicyclo[3.1.0]hexan-3-yl)pyridin-3-yl)ethyl)-1H-pyrazol-4-yl)-6-(3-chloro-6-(difluoromethyl)-2-fluorophenyl)-3-methylpyrazine-2-carboxamide], for which the figures for the IC50 in experiment [1] and in experiment [2] were 2580 nM and 1.3 nM, respectively.
Regarding `Cc1nc(N2C[C@H]3C[C@H]3C2=O)ncc1C(C)n1cc(NC(=O)c2nc(-c3c(C(F)F)ccc(Cl)c3F)cnc2CO)cn1` (single isomer, unassigned) [Example 194, 6-(3-Chloro-6-(difluoromethyl)-2-fluorophenyl)-3-(hydroxymethyl)-N-(1-((S or R)-1-(4-methyl-2-((1R,5S)-2-oxo-3-azabicyclo[3.1.0]hexan-3-yl)pyrimidin-5-yl)ethyl)-1H-pyrazol-4-yl)pyrazine-2-carboxamide], the values for the 50% inhibitory concentration (IC50) in experiment [1] and in experiment [2] were 262 nM and 0.5 nM, respectively.
Regarding `Cc1nc(N2C[C@H]3C[C@H]3C2=O)ncc1[C@@H](CO)n1cc(NC(=O)c2cncc(-c3c(C(F)F)ccc(Cl)c3F)n2)cn1` [Example 159, 6-(3-Chloro-6-(difluoromethyl)-2-fluorophenyl)-N-(1-((S)-2-hydroxy-1-(4-methyl-2-((1R,5S)-2-oxo-3-azabicyclo[3.1.0]hexan-3-yl)pyrimidin-5-yl)ethyl)-177-pyrazol-4-yl)pyrazine-2-carboxamide], the half-maximal inhibitory concentration (IC50) amounted to 6900 nM in experiment [1] and 11.2 nM in experiment [2].
Take `Cc1cc(Cn2cc(NC(=O)c3nc(-c4c(C(F)F)ccc(Cl)c4F)cnc3C(C)O)cn2)nnc1N1C[C@H]2C[C@H]2C1=O` (single isomer, unassigned) [Example 209]: the values for the IC50 in experiment [1] and in experiment [2] were 167 nM and 3.8 nM, respectively.
Regarding `CC(c1cnc(N2Cc3ncccc3C2=O)nc1)n1cc(NC(=O)c2cncc(-c3c(C(F)F)ccc(Cl)c3F)n2)cn1` (racemic) [Example 27, (S and R)-6-(3-Chloro-6-(difluoromethyl)-2-fluorophenyl)-N(1-(1-(2-(5-oxo-5,7-dihydro-6H-pyrrolo[3,4-b]pyridin-6-yl)pyrimidin-5-yl)ethyl)-1H-pyrazol-4-yl)pyrazine-2-carboxamide], the concentration for half-maximal inhibition (IC50) in experiment [1] was 5650 nM; in experiment [2], 14.8 nM.
